Measured values as given in patent publication US20260115180A1, “TREATMENT OF HYPOTHALAMIC OBESITY” (Saniona A/S, priority 2020, published 2026).

What was measured:
[1] = in vivo; cited from earlier work
[2] = Phase 2 double-blind, randomized, placebo-controlled trial of Tesomet in hypothalamic obesity, Part 1 (24 weeks); type: in vivo, human; conditions: after 24 weeks of treatment (FIG. 3a)
Text: The overall safety and tolerability of co-administration of tesofensine and metoprolol (Tesomet) in subjects with hypothalamic injury-induced obesity (HIO) was studied in a phase 2, double-blind, randomized, placebo-controlled, single-center safety and efficacy study followed by with an open-label extension, in total 48 weeks: • Part 1:24 Weeks double blinded treatment followed by • Part 2:24 weeks open lable extension.
The studied population were subjects suffering from obesity developed in relation to damage to the hypothalamus (HO), whether it is from an injuring trauma, bleeding, infaction, tumor, surgery or irradiation. […]
This randomized, double-blind, placebo-controlled Phase 2 trial evaluated Tesomet (tesofensine 0.5 mg+metoprolol 50 mg) administered daily in patients with HO, conducted at Rigshospitalet in Copenhagen, Denmark.
The primary endpoint of the study was overall safety and tolerability measured by all safety data collected during the study including recorded adverse events, laboratory data, blood pressure, and heart rate. […]
Continuous efficacy secondary endpoints were compared between treatment arms by means using Analysis of Co-variance (ANCOVA) including treatment as fixed factor and baseline value as covariate. Estimates and 95% confidence intervals of treatment differences were calculated

[3] = Open-label extension of the Phase 2 study TM005 (additional 24 weeks, 48 weeks in total); type: in vivo, human
Protocol: All subjects: co-administration of 0.5 mg tesofensine/50 mg metoprolol ER daily for 24 weeks. One tablet for each product.
TM005 was a 24-week phase 2, double-blind, randomized, placebo-controlled, single-centre, safety and efficacy study followed by a 24-week open-label extension treatment period designed to evaluate overall safety and tolerability of Tesomet (co-administration of 0.5 mg tesofensine and 50 mg metoprolol) in patients with hypothalamic obesity (HO).
The primary endpoint of the study was overall safety and tolerability measured by all safety data collected during the study including recorded adverse events, laboratory data, blood pressure, and heart rate. The secondary efficacy endpoints included bodyweight, waist circumference, glycemic control and other measures. In the double-blind (DB) period of the study, patients received either Tesomet or matching placebo (2:1 randomization) for 24 weeks.
A total of 21 patients (13 Tesomet, 8 placebo) were randomized into the double blind (DB) period. All patients who completed the DB period of the study were provided the opportunity to receive Tesomet in an open-label extension (OLE) period of the study for an additional 24 weeks. All 18 patients who completed the DB period chose to participate in the OLE period and all of these patients completed the OLE period. […]

[4] = cited from earlier work
[5] = rat model of diet-induced obesity; cited from earlier work

COc1ccccc1OCCNCC(O)COc1cccc2[nH]c3ccccc3c12 (racemic) [carvedilol, (±)-[3-(9H-carbazol-4-yloxy)-2-hydroxypropyl][2-(2-methoxyphenoxy)ethyl]amine]
Half-life of beta blockers [1]: 7 to 10 h

CCOC[C@@H]1[C@@H](c2ccc(Cl)c(Cl)c2)C[C@@H]2CC[C@H]1N2C [Tesofensine, (1R,2R,3S,5S)-3-(3,4-dichlorophenyl)-2-(ethoxymethyl)-8-methyl-8-azabicyclo[3.2.1]octane]
Share of patients with at least 5% weight loss [2]: approximately ⅔
Share of patients with at least 10% weight loss ([3]; FIG. 3b): 33-41%
Body weight after 48 weeks of Tesomet ([3]; baseline to Week 48, 24 weeks double-blind + 24 weeks open-label (FIG. 5)): maintained
Nocturnal energy expenditure ([4]; human subjects): increase nocturnal energy expenditure
Weight loss in obese patients, corrected for placebo and diet effects ([4]; long-term treatment): about 10%
Body weight in DIO rats [5]: robust and sustained weight loss

COCCc1ccc(OCC(O)CNC(C)C)cc1 (centres unmarked) [metoprolol, 1-(Isopropylamino)-3-[4-(2-methoxyethyl)-phenoxy]-propan-2-ol]
Half-life of beta blockers [1]: 3 to 4 h
